Data published in ChEMBL document CHEMBL1201862, “PubChem BioAssay data set” (2004).
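In this assay, cells in 96-well plates receive the compound at five concentrations for 48 hours. Endpoints are linearly interpolated between the surrounding concentrations. GI50 = concentration required for 50% inhibition of growth.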 Calls of active or inactive are those of the source. Cut-off read from the data, not from the text of the source: active = GI50 up to about 1.1 µM and inactive = higher.

Assays:
Test in all cases: growth of human tumour cells (NCI), 48 h
[1] = test system: LXFL 529
[2] = test system: NCI-H522
[3] = test system: HOP-18
[4] = test system: OVCAR-8
[5] = test system: SK-MEL-5
[6] = test system: UACC-62
[7] = test system: DMS-273
[8] = test system: MOLT-4
[9] = test system: SF-539
[10] = test system: 786-0
[11] = test system: HCT-15
[12] = test system: HCC 2998
[13] = test system: ACHN
[14] = test system: LOX IMVI
[15] = test system: HCT-116
[16] = test system: SNB-19
[17] = test system: SW-620
[18] = test system: UO-31
[19] = test system: OVCAR-3
[20] = test system: DLD-1
[21] = test system: DMS-114
[22] = test system: SR
[23] = test system: SK-OV-3
[24] = test system: HL-60
[25] = test system: SF-268
[26] = test system: RXF 393
[27] = test system: SN12C
[28] = test system: A498
[29] = test system: Malme-3M
[30] = test system: OVCAR-4
[31] = test system: RXF 631
[32] = test system: M19-MEL
[33] = test system: SNB-78
[34] = test system: COLO 205
[35] = test system: HT-29
[36] = test system: K562
[37] = test system: NCI-H226
[38] = test system: EKVX
[39] = test system: IGROV-1
[40] = test system: NCI-H460
[41] = test system: TK-10
[42] = test system: NCI-H23
[43] = test system: HOP-62
[44] = test system: CCRF-CEM
[45] = test system: SK-MEL-28
[46] = test system: CAKI-1
[47] = test system: SK-MEL-2
[48] = test system: KM12
[49] = test system: OVCAR-5
[50] = test system: A549
[51] = test system: U-251
[52] = test system: UACC-257
[53] = test system: XF498
[54] = test system: KM-20L2
[55] = test system: SF-295
[56] = test system: SNB-75
[57] = test system: M14
[58] = test system: RPMI-8226
[59] = test system: HOP-92

## CCc1cccc(C(C)C)c1NC(=O)/C(=N\NC(N)=O)C(C(=O)OC)c1cnc2ccccc2n1 (stereo unspecified)
[1]
  GI50: 52.4 µM (inactive)
[2]
  GI50: 24.9 µM (inactive)
[3]
  GI50: 19.1 µM (inactive)
[4]
  GI50: 54.1 µM (inactive)
[5]
  GI50: 18.7 µM (inactive)
[6]
  GI50: 26 µM (inactive)
[7]
  GI50: 31.6 µM (inactive)
[8]
  GI50: 32.9 µM (inactive)
[9]
  GI50: 52.7 µM (inactive)
[10]
  GI50: 60.8 µM (inactive)
[11]
  GI50: 39.2 µM
[12]
  GI50: 40.6 µM (inactive)
[13]
  GI50: 62.7 µM (inactive)
[14]
  GI50: 34.8 µM (inactive)
[15]
  GI50: 24.2 µM (inactive)
[16]
  GI50: 51.3 µM (inactive)
[17]
  GI50: 39.5 µM (inactive)
[18]
  GI50: > 100 µM (inactive)
[19]
  GI50: 20.8 µM (inactive)
[20]
  GI50: 79.6 µM (inactive)
[21]
  GI50: 24.9 µM (inactive)
[22]
  GI50: 46.5 µM (inactive)
[23]
  GI50: > 100 µM (inactive)
[24]
  GI50: 31.8 µM (inactive)
[25]
  GI50: > 100 µM (inactive)
[26]
  GI50: 50 µM (inactive)
[27]
  GI50: 35 µM (inactive)
[28]
  GI50: > 100 µM (inactive)
[29]
  GI50: 34.4 µM (inactive)
[30]
  GI50: 87.7 µM (inactive)
[31]
  GI50: 55.2 µM (inactive)
[32]
  GI50: 15.9 µM (inactive)
[33]
  GI50: > 100 µM (inactive)
[34]
  GI50: 20.9 µM (inactive)
[35]
  GI50: 35.8 µM (inactive)
[36]
  GI50: 37.2 µM (inactive)
[37]
  GI50: 50.5 µM (inactive)
[38]
  GI50: > 100 µM (inactive)
[39]
  GI50: 40.7 µM (inactive)
[40]
  GI50: 31.6 µM (inactive)
[41]
  GI50: > 100 µM (inactive)
[42]
  GI50: 24.8 µM (inactive)
[43]
  GI50: 40.6 µM (inactive)
[44]
  GI50: 39 µM (inactive)
[45]
  GI50: 55.8 µM (inactive)
[46]
  GI50: > 100 µM (inactive)
[47]
  GI50: 53.3 µM (inactive)
[48]
  GI50: 41.6 µM (inactive)
[49]
  GI50: > 100 µM (inactive)
[50]
  GI50: 24.8 µM (inactive)
[51]
  GI50: 40.2 µM (inactive)
[52]
  GI50: 32.1 µM (inactive)
[53]
  GI50: > 100 µM (inactive)
[54]
  GI50: 41.6 µM (inactive)
[55]
  GI50: 58.5 µM (inactive)
[56]
  GI50: 47.4 µM (inactive)
[57]
  GI50: 39.6 µM (inactive)

## CS(=O)(=O)OCCN1CCN(C(=O)c2cccc3c(Nc4ccc(S(N)(=O)=O)cc4)c4ccccc4nc23)CC1
[58]
  GI50: > 46.5 µM (inactive)
[1]
  GI50: > 100 µM (inactive)
[2]
  GI50: > 100 µM (inactive)
[3]
  GI50: > 100 µM (inactive)
[4]
  GI50: > 100 µM (inactive)
[5]
  GI50: > 100 µM (inactive)
[6]
  GI50: > 100 µM (inactive)
[7]
  GI50: > 100 µM (inactive)
[8]
  GI50: > 100 µM (inactive)
[9]
  GI50: > 100 µM (inactive)
[10]
  GI50: > 100 µM (inactive)
[11]
  GI50: > 42.9 µM
[12]
  GI50: > 100 µM (inactive)
[13]
  GI50: > 100 µM (inactive)
[14]
  GI50: > 40.6 µM (inactive)
[15]
  GI50: > 43.9 µM (inactive)
[16]
  GI50: > 49.8 µM (inactive)
[17]
  GI50: > 39.3 µM (inactive)
[18]
  GI50: > 100 µM (inactive)
[19]
  GI50: > 100 µM (inactive)
[20]
  GI50: > 46.8 µM (inactive)
[21]
  GI50: > 42.2 µM (inactive)
[22]
  GI50: > 100 µM (inactive)
[23]
  GI50: > 100 µM (inactive)
[24]
  GI50: > 63.1 µM (inactive)
[25]
  GI50: > 100 µM (inactive)
[26]
  GI50: > 55.2 µM (inactive)
[59]
  GI50: > 100 µM (inactive)
[27]
  GI50: > 100 µM (inactive)
[28]
  GI50: > 100 µM (inactive)
[29]
  GI50: > 100 µM (inactive)
[30]
  GI50: > 100 µM (inactive)
[31]
  GI50: > 100 µM (inactive)
[32]
  GI50: > 81.8 µM (inactive)
[33]
  GI50: > 100 µM (inactive)
[34]
  GI50: > 50.8 µM (inactive)
[35]
  GI50: > 100 µM (inactive)
[36]
  GI50: > 51.5 µM (inactive)
[37]
  GI50: > 100 µM (inactive)
[38]
  GI50: > 100 µM (inactive)
[39]
  GI50: > 100 µM (inactive)
[40]
  GI50: > 100 µM (inactive)
[41]
  GI50: > 100 µM (inactive)
[42]
  GI50: > 100 µM (inactive)
[43]
  GI50: > 100 µM (inactive)
[44]
  GI50: > 44.1 µM (inactive)
[45]
  GI50: > 100 µM (inactive)
[46]
  GI50: > 100 µM (inactive)
[47]
  GI50: > 100 µM (inactive)
[48]
  GI50: > 100 µM (inactive)
[49]
  GI50: > 100 µM (inactive)
[50]
  GI50: > 100 µM (inactive)
[51]
  GI50: > 100 µM (inactive)
[52]
  GI50: > 66.7 µM (inactive)
[53]
  GI50: > 100 µM (inactive)
[54]
  GI50: > 100 µM (inactive)
[55]
  GI50: > 100 µM (inactive)
[56]
  GI50: > 100 µM (inactive)
[57]
  GI50: > 100 µM (inactive)
